The text below walks through data of patent US7189859B2, “Radiolabelled phenylethyl imidazole carboxylic acid ester derivatives” (priority 2003, dated 2007).

The target in series [1] is T1, cytochrome P-45011β enzyme system (Rattus norvegicus, UniProt P15393).
T1 construct: Whole adrenals from adult male Wistar rats were homogenized; from tissue; host or cells: whole adrenals of adult male Wistar rats, washed membrane pellet
T1 sequence (P15393 25-499): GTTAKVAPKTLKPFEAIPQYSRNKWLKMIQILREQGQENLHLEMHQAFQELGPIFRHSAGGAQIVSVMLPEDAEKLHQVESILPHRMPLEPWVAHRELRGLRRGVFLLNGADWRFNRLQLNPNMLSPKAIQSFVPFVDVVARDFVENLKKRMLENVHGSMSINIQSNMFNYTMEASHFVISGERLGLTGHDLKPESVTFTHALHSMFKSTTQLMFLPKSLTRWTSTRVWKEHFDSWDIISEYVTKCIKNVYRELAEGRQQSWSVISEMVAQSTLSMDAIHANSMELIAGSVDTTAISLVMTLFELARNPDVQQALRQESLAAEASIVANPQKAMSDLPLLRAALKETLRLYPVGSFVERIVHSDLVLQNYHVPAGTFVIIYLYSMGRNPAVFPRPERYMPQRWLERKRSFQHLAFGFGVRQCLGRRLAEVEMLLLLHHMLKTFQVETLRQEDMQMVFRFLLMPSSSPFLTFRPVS
Put plainly: Displacement of [^131I]MTO binding. The protocol: Test compounds were incubated at 0.01–100 nM concentrations. Non-specific binding was determined with etomidate (10 μM). […] The filters containing membranes with bound radioligand were measured in a gamma-spectrometer.
IC50 values (the molar concentration of compound necessary to inhibit binding by 50%) were determined for each test compound by non-linear, least squares regression analysis, using an iterative curve fitting routine.

Series [2] deals with lesions of adrenocortical origin. The note with it: clinical; cited from earlier work.
In series [3] the target is T2, rat adrenal membranes (cytochrome P-450 β-hydroxylase) (Rattus norvegicus, UniProt P15393).
T2 sequence (P15393 25-499): T1 sequence (P15393 25-499)
Put plainly: [^131I]MTO binding to rat adrenal membranes (association, dissociation, saturation). As to conditions: for observable association rate constant v: data pooled from 7 experiments. How it is done: Whole adrenals from adult male Wistar rats were homogenized in 10 mM K2HPO4/10 mM HEPES (pH 7.1) with a glass/teflon piston (Potter-type). The homogenate was centrifuged at 35.000×g for 10 min, the pellet was resuspended in fresh buffer and centrifuged again. Membranes were washed 2 more times and stored as aliquots at −80° C.
After incubation, membranes with bound radioligand were isolated by filtration through Whatman GF/B glass fiber filters (presoaked in buffer), followed by 2×4 mL washings with buffer, then filters were measured in a gamma-spectrometer.
For dissociation experiments, membranes were fully equilibrated with 2 nM radioligand, and the dissociation was initiated by the addition of excess unlabelled 4-iodo-MTO and stepwise filtration at 15 sec intervals.
For saturation studies 2–100 nM 4-iodo-MTO carrier was used. See summary in FIG. 1. […] Incubation for 30 minutes using 10 mM K2HPO4/10 mM HEPES, 150 mM NaCl (pH 7.1).

For the next series, the system named is adrenals. Put plainly: In vivo evaluation of ^131I-MTO (organ distribution after tail vein injection). The note with it: rats. How it is done:
Method: ^131I-MTO was used with a radiochemical purity >99% and a specific activity of 57 GBq/μmol. The radiotracer (0.5–1.1 MBq; […]) was injected into the tail vein of rats (female, 180–220 gram). Groups of four rats were sacrifized at specified times up to 24 hours post injection. The organs were excised and weighed, the radioactivity was measured at constant geometry using a gamma-spectrometer with a Nal(TI)-crystal. The data were expressed as percent of injected dose (ID) per organ and as percent of ID per gram tissue.

For series [4], the system named is steroid 11β-hydroxylation. As to conditions: human adrenocortical tissue slices; cited from earlier work.
[5] abbreviates: read-out: IC50 (inhibition of [^131I]MTO binding), rat adrenal membranes.

Each structure is given as a SMILES string. Where two headings read alike, the source gives them in different places.

As a reminder, the IC50 is the point on the concentration scale where inhibition reaches its midpoint. `CC(c1ccccc1)n1cncc1C(=O)O` (stereo not drawn) [ETO-acid]: the half-inhibitory concentration (IC50) in series [1] (setting [5]) was found to be 123000 nM.
In turn, `COC(=O)c1cncn1[C@H](C)c1ccc(I)cc1` [Example 4-iodo-MTO, (R)-methyl 3-[1-(4-iodophenyl)ethyl]-3H-imidazole-4-carboxylate] displayed an IC50 in series [1] of 9 nM.
Regarding `C[C@H](c1ccccc1)n1cncc1C(=O)OCCF` [FETO], in series [1] (setting [5]), the 50% inhibitory concentration (IC50) turned out to be 3 nM.
For the compound `CC(C)(C(=O)c1cccnc1)c1cccnc1` [Metyrapone], the IC50 in series [1] came out at 1200 nM.
Consider `COC(=O)c1cncn1C(C)c1ccccc1` (stereo not drawn) [[O-methyl-^11C]metomidate], for which, in series [2], the “uptake in lesions of adrenocortical origin, including adenomas” value was “high uptake” and the “uptake in lesions of non-adrenocortical origin” value is reported as “very low uptake”.
Broadly, the Kd is a measure of binding affinity in units of concentration. Read a low Kd as tighter binding. The compound `COC(=O)c1cncn1[C@H](C)c1ccc(I)cc1` [[^131I]MTO, (R)-3-[1-(4-[^131I]iodophenyl)ethyl]-3H-imidazole-4-carboxylic acid methyl ester] returned an equilibrium dissociation constant (Kd) in series [3] (saturation analysis, 2–100 nM 4-iodo-MTO carrier, 30 minutes incubation, pH 7.1, (15)) of 7.4 ± 2.8 nM.
Take `COC(=O)c1cncn1[C@H](C)c1ccc([131I])cc1` [[^131I]MTO, (R)-3-[1-(4-[^131I]iodophenyl)ethyl]-3H-imidazole-4-carboxylic acid methyl ester]: the “observable association rate constant v” value in series [3] (ligand concentration 2 nM 4-iodo-MTO) stood at 0.65 min⁻¹. In series [3] (ligand concentration 4 nM 4-iodo-MTO), the “observable association rate constant v” value was found to be 1.23 min⁻¹. In series [3] (ligand concentration 11 nM 4-iodo-MTO), the “observable association rate constant v” value stood at 1.34 min⁻¹. Further, in the series on adrenals (intravenous (tail vein)), the “duration of radioactivity plateau in the adrenals” value worked out at 2 h; the route of elimination entry is “eliminated both by hepatobiliary and by renal excretion”; the “specific uptake in the adrenals” value was “approximately 10 % ID/g tissue”. Further, the “time post injection up to which renal activity is increasing” value in the series with adrenals (renal activity attributed to ^131I-ETO-acid) is given as “up to 4 hours”.
In series [1], `CCOC(=O)c1cncn1[C@H](C)c1ccccc1` [etomidate] returned a half-maximal inhibitory concentration (IC50) of 1.1 nM. For the same compound, in series [4], the “inhibition of steroid 11β-hydroxylation” value is “block the conversion of 11-deoxycortisol to cortisol and of 11-deoxycorticosterone (DOC) to corticosterone and aldosterone”.
Turning to `COC(=O)c1cncn1C(C)c1ccccc1` (stereo not drawn) [metomidate], the IC50 in series [1] came out at 3.7 nM. The “inhibition of steroid 11β-hydroxylation” value in series [4] is “equally potent inhibitor”.
